{"source": "patent US20180028553A1", "about": "“USE OF STING AGONIST AS CANCER TREATMENT” (The University of Chicago, priority 2013, published 2018)", "key": {"B16.F10 tumors": {"tested_on": "B16.F10 tumors", "assay": "Intratumoral treatment of established B16.F10 tumors", "type": "in vivo, mouse", "conditions": "C57BL/6 mice, single IT dose of 500 μg DMXAA", "method": "In vivo tumor experiments. 10^6 of B16-SIY tumor cells, 5×10^4 B16.F10 tumor cells, 10^5 4T1 and CT26, or 10^6 other tumor cells were injected s.c. in 100 μl DPBS or HBSS on the right flank of mice. Following tumor implantation, mice were randomized into treatment groups. […] Measurements of tumors were performed twice per week using calipers, and the tumor volume was calculated with the formula: V=(length×width^2)/2. In some experiments, tumor-free survivors were rechallenged with tumor cells on the opposite flank several weeks after the injection of the primary tumor. Naïve mice were used as controls. For the contralateral experiments, mice were implanted on both flanks and only one tumor was treated. For the B16 melanoma lung metastasis experiments, mice were implanted on the flank with 5×10^4 cells B16.F10 on day 0, and then injected intravenously with 1×10^5 cells on day 7. Lungs were harvested on day 28. Administration of compounds, measurements of tumors and counting of lung tumors were performed in a blinded fashion."}, "[1]": {"tested_on": "STING pathway (TBK1, IRF3 phosphorylation)", "assay": "Western blot of pTBK1 and pIRF3 in macrophages and BM-DCs after STING agonist", "type": "cell-based, mouse", "method": "DMXAA for the same time-points. Proteins were extracted with Triton-X buffer (150 mM sodium chloride, 50 mM Tris, 1% Triton-X, pH 8.0) with proteinase inhibitors (Thermo scientific) and phosphatase inhibitors (Sigma). 30 μg of protein was electrophoresed in 10% SDS-PAGE gels and transferred onto Immobilon-FL membranes (Millipore). Blots were incubated with antibodies specific for phosphorylated TBK1 (Ser172), phosphorylated IRF3 (Ser396), total TBK1, STING and GAPDH (Cell Signaling) or total IRF3 (Invitrogen). Proteins from HEK 293T lines stably expressing STING were extracted with M-PER (Thermo Scientific). 6 μg of protein was loaded onto a 4-12% MES NuPAGE gel (Life Technologies), transferred to nitrocellulose, and probed with anti-HA antibody (Santa Cruz). Anti-rabbit IRDye 680RD label secondary antibody was used for visualization of bands with the Odyssey Imaging system (LI-COR)."}}, "note": "“Also recorded” adds a separate entry of the source."}
{"smiles": "Cc1ccc2c(=O)c3cccc(CC(=O)O)c3oc2c1C", "note": "[DMXAA, 5,6-dimethylXAA (xanthenone-4-acetic acid)]", "values": [{"measurement": "tumor growth", "setting": "B16.F10 tumors", "value": "significantly reduced the growth"}, {"measurement": "activation of the STING pathway (pTBK1, pIRF3)", "setting": "[1]; BM-DC from WT or STING ko mice", "value": "same potent activation of the pathway"}, {"measurement": "phosphorylation of TBK1 and IRF3", "setting": "[1]; STING deficient macrophages, DMXAA 50 μg/ml", "value": "not in STING deficient cells; also recorded: abolished"}, {"measurement": "phosphorylation of TBK1 and IRF3", "setting": "[1]; STING^−/− macrophages reconstituted with mSTING-HA, DMXAA", "value": "restored phosphorylation of TBK1 and IRF3"}, {"measurement": "phosphorylation of TBK1 and IRF3", "setting": "[1]; WT macrophages, DMXAA 50 μg/ml or ML RR-S2 CDA 50 μM", "value": "rapid and potent phosphorilation of TBK1 and IRF3; also recorded: phosphorylation of TBK1 and IRF3 was observed"}]}
